These results are taken from patent US10195190B2, “Local delivery forms of acriflavine for treating tumors” (The Johns Hopkins University, priority 2015, dated 2019).

For one assay, the system named is 9 L gliosarcoma. In words: Survival of F344 rats intracranially implanted with 9 L gliosarcoma. The format is in vivo, rat. Conditions: for median survival: systemic treatment (ACF 5 mg/kg/daily from Day 0 or Day 5; oral temozolomide 50 mg/kg/day Days 5-9).
Assay [1] deals with 9 L rat gliosarcoma cells. In words: Acriflavine cytotoxicity in vitro, CCK-8 assay, 9 L cells. The format is cell-based. The conditions noted are these: 9 L rat glioma cells, 24 h co-incubation, read-out: IC50 concentration, cell viability. On the procedure: (§1) The cytotoxicity of ACF was analyzed in rodent 9 L gliosarcoma (obtained from the Brain Tumor Research Center, University of California at San Francisco) and F98 glioma (a gift from R. Barth, Ohio State University) cell lines as well as in commercial and primary human glioblastoma cell lines, U87 (ATCC) and GB1A, respectively. The cells were plated in 96-well plates at a density of 4×10^3 cells/well, cultured for 24 h and treated with ACF (concentration range of 0.2 μM-25 μM). After co-incubation with ACF in medium for 24 h, cell growth was assessed using a CCK-8 assay (Dojindo, Kumamoto, Japan) according to manufacturers' protocol. Data are shown as mean+/−SEM and the inhibitory concentration 50% (IC50)+95% confidence interval and R^2 are reported.
(§2) The following concentrations of acriflavine: 0.0249 μM, 0.1245 μM, 0.249 μM, 2.5 μM, 25 μM, 50 μM, 500 μM, and 1000 μM were tested. CCK-8 assay was added to the wells, and the optical density was read at 450 nm by a microplate reader.
For orientation: Tetrazolium assays rely on reduction of a dye to a coloured formazan, in cell work by metabolically active cells.

The subject of assay [2] is glioma cell lines (9 L gliosarcoma, F98 glioma, U87, GB1A). In words: Acriflavine cytotoxicity in vitro, CCK-8 assay, all glioma cell lines tested. Type of assay: cell-based, rodent and human. The conditions noted are these: 24 h. The protocol:
as §1, §2

In turn, `Cn1nnc2c(C(N)=O)ncn2c1=O` [temozolomide, Temozolomide] displayed a median survival in the assay on 9 L gliosarcoma of 28 days.

For “3,6-diamino-10-methylacridinium chloride mixed with 3,6-acridinediamine [ACF]”, the IC50 in assay [1] worked out at 1.07 µM. In addition, the inhibition of proliferation result in assay [2] was “inhibited proliferation in all glioma cell lines tested in a dose-dependent manner”. Also, in the assay on 9 L gliosarcoma (systemic ACF started on Day 0 or Day 5), the “survival benefit compared to the control” value is “no benefit in survival”. The median survival in the assay on 9 L gliosarcoma was 14 days.
